The record followed here is patent US6531600B1, “Treatment and compounds” (Beecham Group p.l.c., priority 1989, dated 2003).

Where only a bound is given, the exact number is not on record here.

The target of series [1] is c-AMP phosphodiesterase (erythrocytes). The series is described as follows: Inhibition of cyclic AMP phosphodiesterase (erythrocyte extract, radiochemical procedure). The class given is biochemical. The following applies: phosphodiesterase extracted from erythrocytes. How it is done: a) Inhibition of Cyclic AMP Phosphodiesterase
The phosphodiesterase was extracted by mixing the erythrocytes with 4 volumes of 7 mM phosphate buffer, pH7.4, followed by sonification (3×10 sec; 100 W) and then centrifuging for 30 min at 4200×g.
All supernatants were diluted in the extraction medium and assayed for phosphodiesterase activity within 6 hours of preparation, using the radiochemical procedure described in the above mentioned reference.

Series [2] has as its system Sephadex induced eosinophilia. The series is described as follows: Sephadex induced blood eosinophilia in the rat. The class given is in vivo. The following applies: n = 12 or more. How it is done: b) Induction of blood eosinophilia and the effects of drugs.
Male Charles River Sprague Dawley rats weight between 250 to 300 g were used.
The method used was a modification of that described by Laycock et al (Int. Arch. Appl. Immunol, (1986). 81, 363).
Sephadex G200, particle size 40 to 120 micron, was suspended in isotonic saline at 0.5 mg/ml, and stored for 48 h at 4° C. 1 ml of the suspension was given intravenously to rats on days 0,2 and 5. A control group received saline. The test compound was given before the Sephadex on each occasion, with a contact time expected to give maximum activity at the time of the Sephadex administration. Blood was taken from the tail vein of the rats on day 7 for the determination of total and differential leucocyte counts.
A control group of at least 6 animals was included each time a compound was evaluated. The control group received Sephadex and the vehicle without test compound. The results in the drug treated animals were compared with the control group. Alternatively, if the mean for the control group for any experiment was not statistically different from the mean of the sum of all of the controls groups, then the treated animal results for that experiment were compared with the mean of the sum of all the control groups.
Total and differential leucocyte counts
20 μl samples of blood, taken from the tail vein of the rats, were added to 10 ml of Isoton II and, within 30 min, Zaponin (3 drops) was added, to lyse the erythrocytes. Five minutes later the total cell count was determined using a Coulter Counter Model DN. Differential leucocyte counts were carried out by fixing and staining a blood smear on a microscopic slide with May-Grunwald and Giemsa stains. A minimum of 400 cells were counted on each slide.
Probability values were calculated using the Student's t test.
The effect of the test compound upon Sephadex induced eosinophilia in the rat is set out in Table 3. The test compound was given orally 30 minutes before each injection of Sephadex.

Setting [3] is: 25.0 mg/kg orally 30 mins before each Sephadex i.v. injection.

Usually Ki stands for the dissociation constant of the complex between target and ligand, obtained from inhibition or displacement. In the case of “1,3-Di-cyclopropylmethyl-8-piperidinyl xanthine [Example 23]”, the inhibition constant Ki in series [1] was found to be 55.9 µM.
“1,3-Di-cyclopropylmethyl-8-pyrrolidinyl xanthine [Example 22]”: in series [1], the Ki was 29.7 µM.
For the molecule `CCCCn1c(=O)c2[nH]c([N+](=O)[O-])nc2n(CCCC)c1=O` [Example 1, 1,3-Di-n-butyl-8-nitro xanthine], the Ki in series [1] was found to be 17 µM. In addition, the “% of Control Mean ± SEM (blood eosinophilia)” value (“% of Control Mean ± SEM” below) in series [2] (setting [3]) was 109 ± 6 % of Control.
In series [1], `O=c1c2[nH]c([N+](=O)[O-])nc2n(CC2CC2)c(=O)n1CC1CC1` [Example 2, 1,3-Di-cyclopropylmethyl-8-nitro xanthine] displayed a Ki of 15.9 µM.
Broadly, the melting point is the temperature of the solid-liquid transition. In turn, `O=c1c2[nH]c([N+](=O)[O-])nc2n(CC2CCC2)c(=O)n1CC1CCC1` [Example 3] returned a melting point of 220 °C. The same molecule returned a Ki in series [1] of 6.1 µM.
As to `O=c1c2[nH]c([N+](=O)[O-])nc2n(CC2CCCC2)c(=O)n1CC1CCCC1` [Example 4], the melting point lay within 148 to 150 °C. The Ki in series [1] is 4.8 µM.
`O=c1c2[nH]c([N+](=O)[O-])nc2n(CC2CCCCC2)c(=O)n1CC1CCCCC1` [Example 5] gave a melting point of 140 °C. In addition, the Ki in series [1] was 5.4 µM.
In turn, `CCCCn1c(=O)c2[nH]c(N)nc2n(CCCC)c1=O.Cl` [Example 7, 1,3-Di-n-butyl-8-amino xanthine hydrochloride] gave a Ki in series [1] of 1.3 µM. In addition, in series [2] (setting [3]), the “% of Control Mean ± SEM” value is listed as 91 ± 6 % of Control.
On to `CCCCn1c(=O)c2[nH]c(N)nc2n(CCCC)c1=O` [Example 8, 1,3-Di-n-butyl-8-amino xanthine], for which the melting point amounted to 89 °C.
As for `Nc1nc2c([nH]1)c(=O)n(CC1CC1)c(=O)n2CC1CC1` [Example 9, 1,3-Di-cyclopropylmethyl-8-amino xanthine], the affinity in series [1], expressed as Ki, was 1.6 µM. For the same molecule, the figures for the “% of Control Mean ± SEM” value in series [2] (0.2 mg/kg orally 30 mins before each Sephadex i.v. injection) and in series [2] (2.0 mg/kg orally 30 mins before each Sephadex i.v. injection) were 61 ± 8 % of Control and 48 ± 7 % of Control, respectively.
On to `Nc1nc2c([nH]1)c(=O)n(CC1CCC1)c(=O)n2CC1CCC1` [Example 10], for which the melting point is 124 °C (dec.). The molecule also yielded a Ki in series [1] of 0.53 µM. Besides, in series [2] (5.0 mg/kg orally 30 mins before each Sephadex i.v. injection), the “% of Control Mean ± SEM” value is on record as 47 ± 4 % of Control.
Take `Nc1nc2c([nH]1)c(=O)n(CC1CCCC1)c(=O)n2CC1CCCC1` [Example 11]: the melting point worked out at 300 °C. In series [1], this molecule showed a Ki of 0.57 µM.
As to `Nc1nc2c([nH]1)c(=O)n(C1CC1)c(=O)n2C1CC1` [Example 13, 1,3-Di-cyclopropyl-8-amino xanthine], in series [1], the Ki stood at 14 µM.
Regarding `O=c1c2[nH]c(Cl)nc2n(CC2CC2)c(=O)n1CC1CC1` [Example 17, 1,3-Di-cyclopropylmethyl-8-chloro xanthine], the affinity in series [1], expressed as Ki, was 15.1 µM.
Still for that read-out and setting: in the case of `O=c1c2[nH]c(Cl)nc2n(C2CCCCC2)c(=O)n1C1CCCCC1` [Example 18, 1,3-Di-cyclohexyl-8-chloro xanthine] it was 23 µM; in that of `CCCCn1c(=O)c2[nH]c(N3CCCCC3)nc2n(CCCC)c1=O` [Example 19, 1,3-Di-n-butyl-8-piperidino xanthine], less than 100 µM; in that of `O=c1c2[nH]c(N3CCOCC3)nc2n(CC2CC2)c(=O)n1CC1CC1` [Example 20, 1,3-Di-cyclopropylmethyl-8-morpholino xanthine], 11.5 µM.
Still for that read-out and setting: in the case of `O=c1c2[nH]c(Br)nc2n(CC2CCCCC2)c(=O)n1CC1CCCCC1` [Example 25, 1,3-Di-cyclohexylmethyl-8-bromo xanthine] it was 7.9 µM.
